Assay [1] concerns A498 (renal cancer) cells. Nature of the assay: NCI-60 five dose screen, A498. The settings on record: Homo sapiens, A498, read-out: LC50.
Assay [2] deals with SF-295 (CNS cancer) cells. The assay can be described thus: NCI-60 five dose screen, SF-295. The settings on record: Homo sapiens, SF-295, read-out: LC50.
Assay [3] deals with DU-145 (prostate cancer) cells. Nature of the assay: NCI-60 five dose screen, DU-145. Conditions: Homo sapiens, DU-145, read-out: LC50.
The test system of assay [4] is HCC-2996 (colon cancer) cells. Nature of the assay: NCI-60 five dose screen, HCC-2996. Conditions: read-out: LC50.
In assay [5] the test system is HOP-92 (non-small cell lung cancer) cells. The assay can be described thus: NCI-60 five dose screen, HOP-92. Conditions: Homo sapiens, HOP-92, read-out: LC50.
The test system of assay [6] is OVCAR-3 (ovarian cancer) cells. Nature of the assay: NCI-60 five dose screen, OVCAR-3. Conditions: Homo sapiens, OVCAR-3, read-out: LC50.
Assay [7] relates to MDA-MB-468 (breast cancer) cells. The assay can be described thus: NCI-60 five dose screen, MDA-MB-468. The settings on record: Homo sapiens, MDA-MB-468, read-out: LC50.
Assay [8] concerns NCI-H522 (non-small cell lung cancer) cells. Nature of the assay: NCI-60 five dose screen, NCI-H522. Conditions: Homo sapiens, NCI-H522, read-out: LC50.
The test system of assay [9] is COLO 205 (colon cancer) cells. Nature of the assay: NCI-60 five dose screen, COLO 205. Conditions: Homo sapiens, COLO 205, read-out: LC50.
The test system of assay [10] is RXF 393 (renal cancer) cells. Nature of the assay: NCI-60 five dose screen, RXF 393. Conditions: Homo sapiens, RXF 393, read-out: LC50.
Assay [11] concerns MDA-MB-435 (melanoma) cells. Nature of the assay: NCI-60 five dose screen, MDA-MB-435. The settings on record: Homo sapiens, MDA-MB-435, read-out: LC50.
Assay [12] relates to SK-MEL-5 (melanoma) cells. Nature of the assay: NCI-60 five dose screen, SK-MEL-5. The settings on record: Homo sapiens, SK-MEL-5, read-out: LC50.

Consider `COc1cccc2c1C(=O)c1c(O)c3c(c(O)c1C2=O)C[C@@](O)(C(=O)CO)C[C@@H]3O[C@H]1C[C@H](N)[C@H](O)[C@H](C)O1` [Doxorubicin, doxorubicin, reference compound], for which the CC50 in assay [1] is 3.72 µM; in [2], 19.1 µM; in assay [3], 23.4 µM; in assay [4] it was 6.76 µM; in assay [5] it was 20.9 µM; in assay [6] it was 23.4 µM. In addition, the CC50 in [7] stood at 2.45 µM; in assay [8], 9.33 µM; in assay [9] it was 4.9 µM; in assay [10] it was 4.79 µM; in assay [11] it was 2.88 µM; in [12] it was 1.62 µM.
